Results taken from patent US20020090380A1, “Novel formulation comprising thymol useful in the treatment of drug resistant bacterial infections” (priority 2000, published 2002).
Read-outs that look alike come from different tables or passages of the source.

What was measured:
[1] = tested on: lomefloxacin resistant cells of E. coli; type: cell-based, Escherichia coli
[2] = tested on: E. coli CA 8000 (WT); type: cell-based, Escherichia coli
[3] = tested on: Nal^R mutants of E. coli; type: cell-based, Escherichia coli; conditions: 5 μg/ml
[4] = tested on: Lom^R mutants of Mycobacterium smegmatis; type: cell-based; conditions: Lom^R mutants
[5] = CA 8000 (WT), 20 μg/ml, Table 4

## O=C(O)c1cn(C2CC2)c2cc(N3CCNCC3)c(F)cc2c1=O [Ciprofloxacin, ciprofloxacin]
[1]; CAL 101, 2 μg/ml
  Growth in poison agar medium: +
[1]; CAL 102, 2 μg/ml
  Growth in poison agar medium: +
[1]; CAL 103, 2 μg/ml
  Growth in poison agar medium: +
[1]; CAL 104, 2 μg/ml
  Growth in poison agar medium: +
[1]; CAL 105, 2 μg/ml
  Growth in poison agar medium: +
[1]; CAL 106, 2 μg/ml
  Growth in poison agar medium: +
[1]; CAL 107, 2 μg/ml
  Growth in poison agar medium: +
[1]; CAL 108, 2 μg/ml
  Growth in poison agar medium: +
[2]
  Growth in poison agar medium: −
[3]; CAN 101
  Growth in poison agar medium: −
[3]; CAN 102
  Growth in poison agar medium: −
[3]; CAN 103
  Growth in poison agar medium: −
[3]; CAN 104
  Growth in poison agar medium: −
[3]; CAN 105
  Growth in poison agar medium: −
[3]; CAN 106
  Growth in poison agar medium: −
[3]; CAN 107
  Growth in poison agar medium: −
[3]; CAN 108
  Growth in poison agar medium: −
[3]; CAN 109
  Growth in poison agar medium: −
[3]; CAN 110
  Growth in poison agar medium: −
[3]; CAN 111
  Growth in poison agar medium: −
[3]; CAN 112
  Growth in poison agar medium: −
[3]; CAN 113
  Growth in poison agar medium: −
[3]; CAN 114
  Growth in poison agar medium: −
[3]; CAN 115
  Growth in poison agar medium: −
[3]; CAN 116
  Growth in poison agar medium: −
[3]; CAN 117
  Growth in poison agar medium: −
[3]; CAN 118
  Growth in poison agar medium: −
[3]; CAN 119
  Growth in poison agar medium: −
[3]; CAN 120
  Growth in poison agar medium: −
[3]; CAN 121
  Growth in poison agar medium: −
[3]; CAN 122
  Growth in poison agar medium: −
[3]; CAN 123
  Growth in poison agar medium: −
[3]; CAN 124
  Growth in poison agar medium: −
[3]; CAN 125
  Growth in poison agar medium: −
[3]; CAN 126
  Growth in poison agar medium: −
[4]
  resistance of the mutants: resistant

## CCn1cc(C(=O)O)c(=O)c2cc3c(cc21)OCO3 [Oxolinic Acid, oxolinic acid]
[1]; CAL 101, 5 μg/ml
  Growth in poison agar medium: +
[1]; CAL 102, 5 μg/ml
  Growth in poison agar medium: +
[1]; CAL 103, 5 μg/ml
  Growth in poison agar medium: +
[1]; CAL 104, 5 μg/ml
  Growth in poison agar medium: +
[1]; CAL 105, 5 μg/ml
  Growth in poison agar medium: +
[1]; CAL 106, 5 μg/ml
  Growth in poison agar medium: +
[1]; CAL 107, 5 μg/ml
  Growth in poison agar medium: +
[1]; CAL 108, 5 μg/ml
  Growth in poison agar medium: +
[2]; CA 8000 (WT), 5 μg/ml, Table 2
  Growth in poison agar medium: −
[2]; CA 8000 (WT), 5 μg/ml, Table 4
  Growth in poison agar medium: −
[3]; CAN 101
  Growth in poison agar medium: −
[3]; CAN 102
  Growth in poison agar medium: −
[3]; CAN 103
  Growth in poison agar medium: −
[3]; CAN 104
  Growth in poison agar medium: −
[3]; CAN 105
  Growth in poison agar medium: −
[3]; CAN 106
  Growth in poison agar medium: +
[3]; CAN 107
  Growth in poison agar medium: +
[3]; CAN 108
  Growth in poison agar medium: +
[3]; CAN 109
  Growth in poison agar medium: +
[3]; CAN 110
  Growth in poison agar medium: +
[3]; CAN 111
  Growth in poison agar medium: +
[3]; CAN 112
  Growth in poison agar medium: −
[3]; CAN 113
  Growth in poison agar medium: +
[3]; CAN 114
  Growth in poison agar medium: +
[3]; CAN 115
  Growth in poison agar medium: +
[3]; CAN 116
  Growth in poison agar medium: +
[3]; CAN 117
  Growth in poison agar medium: +
[3]; CAN 118
  Growth in poison agar medium: +
[3]; CAN 119
  Growth in poison agar medium: −
[3]; CAN 120
  Growth in poison agar medium: −
[3]; CAN 121
  Growth in poison agar medium: +
[3]; CAN 122
  Growth in poison agar medium: +
[3]; CAN 123
  Growth in poison agar medium: +
[3]; CAN 124
  Growth in poison agar medium: +
[3]; CAN 125
  Growth in poison agar medium: +
[3]; CAN 126
  Growth in poison agar medium: +

## CCn1cc(C(=O)O)c(=O)c2cc(F)c(N3CCNCC3)cc21 [Aorfloxacin]
[1]; CAL 101, 20 μg/ml
  Growth in poison agar medium: +
[1]; CAL 102, 20 μg/ml
  Growth in poison agar medium: +
[1]; CAL 103, 20 μg/ml
  Growth in poison agar medium: +
[1]; CAL 104, 20 μg/ml
  Growth in poison agar medium: +
[1]; CAL 105, 20 μg/ml
  Growth in poison agar medium: +
[1]; CAL 106, 20 μg/ml
  Growth in poison agar medium: +
[1]; CAL 107, 20 μg/ml
  Growth in poison agar medium: +
[1]; CAL 108, 20 μg/ml
  Growth in poison agar medium: +
[2]; [5]
  Growth in poison agar medium: −

## C[C@@H]1CN(c2c(F)c(N)c3c(=O)c(C(=O)O)cn(C4CC4)c3c2F)C[C@H](C)N1 [Sparfloxacin]
[1]; CAL 101, 20 μg/ml
  Growth in poison agar medium: +
[1]; CAL 102, 20 μg/ml
  Growth in poison agar medium: +
[1]; CAL 103, 20 μg/ml
  Growth in poison agar medium: +
[1]; CAL 104, 20 μg/ml
  Growth in poison agar medium: +
[1]; CAL 105, 20 μg/ml
  Growth in poison agar medium: +
[1]; CAL 106, 20 μg/ml
  Growth in poison agar medium: +
[1]; CAL 107, 20 μg/ml
  Growth in poison agar medium: +
[1]; CAL 108, 20 μg/ml
  Growth in poison agar medium: +
[2]; CA 8000 (WT), 5 μg/ml, Table 2
  Growth in poison agar medium: −
[2]; [5]
  Growth in poison agar medium: −
[3]; CAN 101
  Growth in poison agar medium: +
[3]; CAN 102
  Growth in poison agar medium: +
[3]; CAN 103
  Growth in poison agar medium: +
[3]; CAN 104
  Growth in poison agar medium: +
[3]; CAN 105
  Growth in poison agar medium: +
[3]; CAN 106
  Growth in poison agar medium: +
[3]; CAN 107
  Growth in poison agar medium: +
[3]; CAN 108
  Growth in poison agar medium: +
[3]; CAN 109
  Growth in poison agar medium: +
[3]; CAN 110
  Growth in poison agar medium: +
[3]; CAN 111
  Growth in poison agar medium: +
[3]; CAN 112
  Growth in poison agar medium: +
[3]; CAN 113
  Growth in poison agar medium: +
[3]; CAN 114
  Growth in poison agar medium: +
[3]; CAN 115
  Growth in poison agar medium: +
[3]; CAN 116
  Growth in poison agar medium: +
[3]; CAN 117
  Growth in poison agar medium: +
[3]; CAN 118
  Growth in poison agar medium: +
[3]; CAN 119
  Growth in poison agar medium: +
[3]; CAN 120
  Growth in poison agar medium: +
[3]; CAN 121
  Growth in poison agar medium: +
[3]; CAN 122
  Growth in poison agar medium: +
[3]; CAN 123
  Growth in poison agar medium: +
[3]; CAN 124
  Growth in poison agar medium: +
[3]; CAN 125
  Growth in poison agar medium: +
[3]; CAN 126
  Growth in poison agar medium: +
